Results as given in PMC9505067, “Synthesis of Hydantoin Androgen Receptor Antagonists and Study on Their Antagonistic Activity” (Molecules, 2022).
Like-named read-outs stand apart in the source and are kept apart here.

Assays:
[1] = target: T1, androgen receptor (AR) (Homo sapiens, UniProt P10275); experiment: AR antagonist luciferase gene reporter assay (AR plasmid pSVAR0 + MMTV-Luc, DHT at EC80)
T1 sequence (P10275 1-920): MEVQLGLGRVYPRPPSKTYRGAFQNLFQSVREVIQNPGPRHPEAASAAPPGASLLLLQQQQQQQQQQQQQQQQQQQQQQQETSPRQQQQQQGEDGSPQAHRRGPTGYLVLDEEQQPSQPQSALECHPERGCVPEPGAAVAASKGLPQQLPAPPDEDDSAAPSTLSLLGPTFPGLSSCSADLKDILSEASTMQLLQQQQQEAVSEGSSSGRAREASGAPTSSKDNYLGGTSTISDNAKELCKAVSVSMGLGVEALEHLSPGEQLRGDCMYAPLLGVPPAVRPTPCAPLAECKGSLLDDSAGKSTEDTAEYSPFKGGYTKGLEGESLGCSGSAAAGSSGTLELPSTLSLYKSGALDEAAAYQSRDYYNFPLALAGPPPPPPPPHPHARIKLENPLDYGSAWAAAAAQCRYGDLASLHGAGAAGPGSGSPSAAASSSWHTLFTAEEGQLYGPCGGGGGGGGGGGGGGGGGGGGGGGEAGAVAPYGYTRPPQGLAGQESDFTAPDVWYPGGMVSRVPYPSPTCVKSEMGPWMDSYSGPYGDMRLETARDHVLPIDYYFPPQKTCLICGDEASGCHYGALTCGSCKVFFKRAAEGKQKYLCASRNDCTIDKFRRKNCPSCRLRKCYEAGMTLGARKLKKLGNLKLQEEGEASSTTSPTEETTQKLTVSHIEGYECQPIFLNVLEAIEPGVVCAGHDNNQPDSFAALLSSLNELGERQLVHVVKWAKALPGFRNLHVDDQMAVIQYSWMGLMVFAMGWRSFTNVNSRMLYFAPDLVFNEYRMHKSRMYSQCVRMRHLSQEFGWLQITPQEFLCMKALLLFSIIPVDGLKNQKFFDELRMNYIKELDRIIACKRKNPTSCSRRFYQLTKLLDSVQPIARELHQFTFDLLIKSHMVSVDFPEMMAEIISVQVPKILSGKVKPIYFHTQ

[2] = system: LNCaP cells; experiment: Anti-proliferative activity assay in LNCaP cells (CCK-8); assay type: cell-based; details: 72 h treatment, normalized relative to DMSO-control treated cells, means ± SD, concentration not given
Protocol: We performed experiments accordingly to detect the anti-proliferative effect of compounds using the prostate cancer LNCaP cell line. The measurement of proliferative activity was performed after treatment with a concentration range of each compound for 72 h.
LNCaP cells were cultured in RPMI-1640 medium (Life Technologies, Carlsbad, CA, USA) supplemented with 10% (v/v) fetal bovine serum, 1% sodium pyruvate and 1% L-Glutamine. The cells were seeded into 96-well plates at a density of 8 × 10^4 cells per well. After 24 h incubation, the culture medium was removed and the cells were cultivated in the medium supplemented with 2% (v/v) fetal bovine serum for 2 days and then treated with different concentrations of test compounds for 3 days. Cell viability was measured with the CCK-8 kit (Dojindo).

[3] = Antagonist Activity in CV-1 IC50, luciferase reporter in AR-transfected cells, DHT at EC80, 24 h incubation, means ± SD of three independent experiments
[4] = luciferase reporter in AR-transfected cells, DHT at EC80, 24 h, enzalutamide = 100, means ± SD of three independent experiments

SMILES	melting point [°C]	Antagonist Activity in CV-1 Efficacy [1] [%]	IC50 [1, 3] [nM]	Proliferative/Anti-Proliferative Activity in LNCAP [2] [%]	IC50 [1] [nM]	Antagonist Activity in CV-1 Efficacy [1, 4] [%]
CC1(CO)C(=O)N(c2ccc(C#N)c(C(F)(F)F)c2)C(=S)N1c1ccc(F)cc1 (centres unmarked) [6c, 4-(3-(4-fluorophenyl)-4-(hydroxymethyl)-4-methyl-5-oxo-2-thioxoimidazolidin-1-yl)-2-(trifluoromethyl)benzonitrile]	231 to 233	91 ± 5.9	46.2 ± 4.1	118.7 ± 22.1	–	–
COc1ccc(N2C(=O)N(c3ccc(C#N)c(C(F)(F)F)c3)C(=O)C2(C)CO)cc1 (centres unmarked) [7f, 4-(4-(hydroxymethyl)-3-(4-methoxyphenyl)-4-methyl-2,5-dioxoimidazolidin-1-yl)-2-(trifluoromethyl)benzonitrile]	128 to 130	90 ± 13.3	416 ± 230	–	–	–
COc1ccc(N2C(=S)N(c3ccc(C#N)c(C(F)(F)F)c3)C(=O)C2(C)CO)cc1 (centres unmarked) [6f, 4-(4-(hydroxymethyl)-3-(4-methoxyphenyl)-4-methyl-5-oxo-2-thioxoimidazolidin-1-yl)-2-(trifluoromethyl)benzonitrile]	183 to 185	89 ± 3.7	286 ± 29.5	–	–	–
CC1(CO)C(=O)N(c2ccc(C#N)c(C(F)(F)F)c2)C(=S)N1c1ccccc1 (centres unmarked) [6a, 4-(4-(hydroxymethyl)-4-methyl-5-oxo-3-phenyl-2-thioxoimidazolidin-1-yl)-2-(trifluoromethyl)benzonitrile]	216 to 219	101 ± 6.7	46.8 ± 6.2	149.3 ± 14.2	–	–
COC(=O)c1ccc(N2C(=S)N(c3ccc(C#N)c(C(F)(F)F)c3)C(=O)C2(C)CO)cc1 (centres unmarked) [6j, methyl 4-(3-(4-cyano-3-(trifluoromethyl)phenyl)-5-(hydroxymethyl)-5-methyl-4-oxo-2-thioxoimidazolidin-1-yl)benzoate]	168 to 170	95 ± 4.2	532 ± 58.2	–	–	–
COC(=O)c1ccc(N2C(=O)N(c3ccc(C#N)c(C(F)(F)F)c3)C(=O)C2(C)CO)cc1 (centres unmarked) [7j, methyl 4-(3-(4-cyano-3-(trifluoromethyl)phenyl)-5-(hydroxymethyl)-5-methyl-2,4-dioxoimidazolidin-1-yl)benzoate]	139 to 141	96 ± 10.8	139 ± 36.2	–	–	–
CC1(CO)C(=O)N(c2cnc(C#N)c(C(F)(F)F)c2)C(=S)N1c1ccccc1 (centres unmarked) [19a, 5-(4-(hydroxymethyl)-4-methyl-5-oxo-3-phenyl-2-thioxoimidazolidin-1-yl)-3-(trifluoromethyl)picolinonitrile]	203 to 205	61.27 ± 12.44	18.4 ± 8.65	122.8 ± 16.8	–	–
CN1CCC(Oc2ccc(N3C(=S)N(c4ccc(C#N)c(C(F)(F)F)c4)C(=O)C3(C)CO)cc2)CC1 (centres unmarked) [6l, 4-(4-(hydroxymethyl)-4-methyl-3-(4-((1-methylpiperidin-4-yl)oxy)phenyl)-5-oxo-2-thioxoimidazolidin-1-yl)-2-(trifluoromethyl)benzonitrile]	117 to 119	92 ± 2.9	337	–	–	–
CC1(CO)C(=O)N(c2ccc(C#N)c(C(F)(F)F)c2)C(=O)N1c1ccc([N+](=O)[O-])cc1 (centres unmarked) [7h, 4-(4-(hydroxymethyl)-4-methyl-3-(4-nitrophenyl)-2,5-dioxoimidazolidin-1-yl)-2-(trifluoromethyl)benzonitrile]	160 to 162	93 ± 9.3	48.9 ± 12.7	–	–	–
CC1(CO)C(=O)N(c2ccc(C#N)c(C(F)(F)F)c2)C(=O)N1c1ccc(O)cc1 (centres unmarked) [11b, 4-(4-(hydroxymethyl)-3-(4-hydroxyphenyl)-4-methyl-2,5-dioxoimidazolidin-1-yl)-2-(trifluoromethyl)benzonitrile]	110 to 112	100 ± 3.4	2360 ± 1710	–	–	–
CC1(CO)C(=O)N(c2ccc(C#N)c(C(F)(F)F)c2)C(=S)N1c1ccc(Br)cc1 (centres unmarked) [6e, 4-(3-(4-bromophenyl)-4-(hydroxymethyl)-4-methyl-5-oxo-2-thioxoimidazolidin-1-yl)-2-(trifluoromethyl)benzonitrile]	206 to 208	86 ± 6.5	117 ± 16.3	–	–	–
CC1(CO)C(=O)N(c2ccc(C#N)c(C(F)(F)F)c2)C(=S)N1c1ccc([N+](=O)[O-])cc1 (centres unmarked) [6h, 4-(4-(hydroxymethyl)-4-methyl-3-(4-nitrophenyl)-5-oxo-2-thioxoimidazolidin-1-yl)-2-(trifluoromethyl)benzonitrile]	206 to 208	–	79600	–	–	–
CC1(CO)C(=O)N(c2ccc(C#N)c(C(F)(F)F)c2)C(=S)N1c1ccc(Cl)cc1 (centres unmarked) [6d, 4-(3-(4-chlorophenyl)-4-(hydroxymethyl)-4-methyl-5-oxo-2-thioxoimidazolidin-1-yl)-2-(trifluoromethyl)benzonitrile]	205 to 207	96 ± 3.8	79.3 ± 13.2	–	–	–
CC(=O)Nc1ccc(N2C(=S)N(c3ccc(C#N)c(C(F)(F)F)c3)C(=O)C2(C)CO)cc1 (centres unmarked) [compound 9, N-(4-(3-(4-cyano-3-(trifluoromethyl)phenyl)-5-(hydroxymethyl)-5-methyl-4-oxo-2-thioxoimidazolidin-1-yl)phenyl)acetamide]	126 to 128	95 ± 3.1	939 ± 124	–	–	–
C[C@]12CCC(=O)C[C@@H]1CC[C@@H]1[C@@H]2CC[C@]2(C)[C@@H](O)CC[C@@H]12 [DHT, reference compound]	–	–	–	186.7 ± 5.6	–	–
CC1(CO)C(=O)N(c2cnc(C#N)c(C(F)(F)F)c2)C(=S)N1c1ccc(F)cc1 (centres unmarked) [19b, 5-(3-(4-fluorophenyl)-4-(hydroxymethyl)-4-methyl-5-oxo-2-thioxoimidazolidin-1-yl)-3-(trifluoromethyl)picolinonitrile]	181 to 183	–	–	65.7 ± 20.5	32.5 ± 22.1	75.55 ± 11.87
CC1(CO)C(=O)N(c2ccc(C#N)c(C(F)(F)F)c2)C(=S)N1c1ccc(C(F)(F)F)cc1 (centres unmarked) [6i, 4-(4-(hydroxymethyl)-4-methyl-5-oxo-2-thioxo-3-(4-(trifluoromethyl)phenyl)imidazolidin-1-yl)-2-(trifluoromethyl)benzonitrile]	178 to 180	102 ± 8.9	68.2 ± 4.6	–	–	–
CNC(=O)c1ccc(N2C(=S)N(c3cnc(C#N)c(C(F)(F)F)c3)C(=O)C2(C)CO)cc1F (centres unmarked) [19c, 4-(3-(6-cyano-5-(trifluoromethyl)pyridin-3-yl)-5-(hydroxymethyl)-5-methyl-4-oxo-2-thioxoimidazolidin-1-yl)-2-fluoro-N-methylbenzamide]	127 to 129	–	–	–	903 ± 602	55.46 ± 14.74
CNC(=O)c1ccc(N2C(=S)N(c3ccc(C#N)c(C(F)(F)F)c3)C(=O)C2(C)C)cc1F [Enzalutamide, reference compound]	–	–	–	71.4 ± 7.8	–	–
CC1(CO)C(=O)N(c2ccc(C#N)c(C(F)(F)F)c2)C(=S)N1c1ccc(C#N)cc1 (centres unmarked) [6g, 4-(3-(4-cyanophenyl)-4-(hydroxymethyl)-4-methyl-5-oxo-2-thioxoimidazolidin-1-yl)-2-(trifluoromethyl)benzonitrile]	234 to 236	102 ± 15.5	338 ± 44.7	–	–	–
Cc1ccc(N2C(=O)N(c3ccc(C#N)c(C(F)(F)F)c3)C(=O)C2(C)CO)cc1 (centres unmarked) [7b, 4-(4-(hydroxymethyl)-4-methyl-2,5-dioxo-3-(p-tolyl)imidazolidin-1-yl)-2-(trifluoromethyl)benzonitrile]	156 to 158	95 ± 12.3	115 ± 17.6	–	–	–
